The values that follow come from PMC6049614 (Chemical Communications (Cambridge, England), 2018).

A short description of data set [1]: in vivo. As to conditions: rat; for tissue uptake at 0.5 h / tissue uptake at 10 min: female, Wistar, in vivo, total radioactivity; for tissue uptake at 0.5 h: inhaled or intranasal. The protocol:
To investigate the plausibility of i.n. administration for OT-like therapies, given the similar structure and hydrophilic profile between AlF-NODA-dLVT and OT, in vivo tissue distribution of [^18F]AlF-NODA-dLVT was determined following i.n. or i.v. administration. […]. Here, it is anticipated that both routes show independent kinetic and metabolic profiles and the extended apparent availability of OT following i.n. administration supports a longer timeframe for this study.[27],[28] Distribution was determined through gamma counting of radioactivity in isolated tissue. A large portion underwent excretion via kidneys (i.v. 4.6 ± 0.4%ID per g; i.n. 1.31 ± 0.7%ID per g) and urine (i.v. 2.5 ± 1.2%ID per g; i.n. 7.7 ± 2.2%ID per g), as expected from the hydrophilic character of the tracer, similar to previous results found with radiolabelled OT given i.v. (Fig. 4A).[29]
Fig. 4 Biodistribution of [^18F]AlF-NODA-dLVT in rat. […] Both are shown relative to blood levels following either i.n. (30 min) or i.v. (10 min) administration. Each data point corresponds to mean ± SD, n = 3.
All animal experiments were performed in accordance to the Animals (Scientific Procedures) Act 1986 and were approved by the King’s college London ethical review committee. The work was performed under PPL 70/8230 (Reza Rezavi). Adult female Wistar rats (220 ± 4.5 g) were group housed at 21 ± 1 °C in a 12 h light:dark cycle with ad libitum access to standard rat chow and water. [18F]AlF-NODA-dLVT was formulated in 0.9% saline to contain no more than 5% MeOH. Female Wistar rats received a dose of [18F]AlF-NODA-dLVT by tail vein injection (up to 650 μL in volume), or via nasal administration using a syringe with a plastic cannula attached to one nostril (25 μL per nare).
A 0.3 mL insulin syringe, containing a 29-gauge needle, was fitted with a PE10 cannula (15 mm). The cannula was fitted so that it covered approximately 3 mm of the needle tip.
Radioligand was added to the syringe and the activity measured before and after administration to calculate the injected dose (ID). Anesthesia was induced using a mixture of 5% isoflurane and oxygen (Animalcare, UK) at a flow rate of 1 L/min and maintained at 2.5% isoflurane.
Once unresponsive, the rat was held in an almost vertical position and radioactivity was administered through one nare at the back of the nasal cavity.
Rats were sacrificed by removal of the heart under isoflurane anaesthesia at 10 min following tail vein injection or 30 min following i.n. administration. Major organs were excised, washed with saline, weighed and counted in a gamma counter (LKB Wallac 1282), together with standards of the injection mixture. Organ uptake was calculated as percentage injected dose per gram [%ID/g] of tissue mass. Data are reported as mean ± SD.

A short description of data set [2]: physchem. Format: physicochemical. The following applies: pH 7.4. The protocol:
(§1) To justify use of [Al^18F]NODA-dLVT in vivo, tracer lipophilicity and specific binding were determined through a standard shake flask assay and rat brain autoradiography, respectively. A log D7.4 of –0.54 ± 0.1 was established for [Al^18F]NODA-dLVT indicating a hydrophilic profile and potential for low non-specific binding. To investigate the feasibility of [Al^18F]NODA-dLVT for nervous system imaging, tracer was incubated at a concentration of 3 nM, either alone or in the presence of excess OT (10 μM) with brain tissue cut in the sagittal plane to determine total vs. non-specific binding (Fig. 3). This enabled calculation of % specific binding of [Al^18F]NODA-dLVT to regions of brain tissue (ESI, ^† Section 4.2). [^18F]AlF-NODA-dLVT specifically bound regions known to express appreciable levels of OTR (Fig. 3),[23]–[26] including hippocampus (CA1: 53 ± 4%; subiculum, S: 60 ± 1%), central amygdala nucleus (ac: 56 ± 1%), olfactory systems (olfactory tubercle, Tu: 53 ± 5%; anterior olfactory nucleus, AO: 38 ± 2%), acumens nuclei (Acb: 43 ± 4%), and cortical regions (visual cortex, V1: 61 ± 4%; motor cortex, MC: 42 ± 4%).

Data set [3] addresses T1, OTR in rat brain slices (Rattus norvegicus, UniProt P70536).
T1 construct: from tissue; host or cells: sagittal brain sections of male Wistar rats
T1 sequence (P70536 1-388): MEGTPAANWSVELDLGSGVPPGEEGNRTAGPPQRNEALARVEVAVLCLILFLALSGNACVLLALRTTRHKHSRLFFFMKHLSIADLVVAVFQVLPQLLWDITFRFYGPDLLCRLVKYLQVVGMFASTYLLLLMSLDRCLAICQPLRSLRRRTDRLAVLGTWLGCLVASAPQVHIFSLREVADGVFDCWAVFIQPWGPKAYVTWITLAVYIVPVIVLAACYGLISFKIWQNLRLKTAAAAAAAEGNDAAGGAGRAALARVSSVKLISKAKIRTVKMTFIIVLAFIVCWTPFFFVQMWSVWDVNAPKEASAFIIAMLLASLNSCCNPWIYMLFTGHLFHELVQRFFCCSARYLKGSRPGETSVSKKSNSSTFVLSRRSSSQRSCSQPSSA
Description: Rat brain autoradiography, specific binding. The following applies: 3 nM tracer, nonspecific with 10 μM OT, rat brain sagittal slices. The procedure:
as §1
Fig. 3 Specific binding profile of [^18F]AlF-NODA-dLVT. Radiograms of total (top; 3 nM [^18F]AlF-NODA-dLVT) and nonspecific binding (bottom; 3 nM [^18F]AlF-NODA-dLVT and 10 μM OT) of [^18F]AlF-NODA-dLVT to rat brain slices in the sagittal pane. Areas with high specific binding are indicated on the figure with arrow heads. Key: AO = anterior olfactory nucleus; CA1 = field CA1 of the hippocampus; Acb = accumbens nuclei; Tu = olfactory tubercle; VMH = ventromedial hypothalamic nuclei; MC = motor cortex; V1 = primary visual cortex; S = subiculum; ac = central amygdala nucleus; lo = lateral olfactory tract. […]
was 84 ± 2%. After 30 min 18F yields remained at 84 ± 3%.
4.1 Tissue Preparation for rat brain autoradiography
Male Wistar rats (250 g; n=3) were stunned then decapitated. Brains were rapidly removed, incubated in 20% sucrose solution for 2 h, and immediately frozen (-80 °C). Tissues were stored at -80 °C until required. Rat brains were sectioned in the sagittal plane (20 µm thickness; according to the atlas of Paxinos and Watson, 1998). Tissues were cut using a cryostat microtome (CM3050S, Leica, UK), and thaw-mounted onto glass microscope slides. Slides were stored at -80 °C until use.
4.2 Autoradiography Procedure
Tissue was thawed to room temperature, dried then washed with ice cold buffer (50 mM Tris, pH 7.4). Sections were air dried and incubated for 1 h at room temperature with [18F]AlF-NODA-dLVT (3 nM) in buffer (50 mM Tris pH 7.4, 10 mM MgCl2). For nonspecific binding, OT (10 µM) was co-incubated with [18F]AlF-NODA-dLVT (3 nM) over the duration of the experiment. After incubation, slides were washed with ice-cold buffer (2 min × 2), followed by a final wash in ice-cold distilled water (2 min). Slides were dried in a cool airstream then exposed to 18F sensitive phosphor screens (Amersham, UK) with [18F]AlF-NODA-dLVT standards in X-ray cassettes overnight. Phosphor screens were imaged using a Typhoon 8600 scanner (Molecular Dynamics) and images were analysed with OptiQuant 5.0 (Perkin Elmer) and FIJI. Values were converted to relative binding percentages using calibrated [18F]AlF-NODA-dLVT standards. Binding potential (BP) is defined as the binding of tracer in brain region/total activity incubated as determined by the standard. Specific binding in each region is calculated by comparing the total and non-specific BP by the equation: ((total BP – non-specific BP)/total BP) × 100.

Details of data set [4]: method as in PMID 693485. The following applies: following i.v. injection; cited from earlier work.

Where a SMILES comes first, the peptide text is derived from it. Bridges are numbered along the chain shown (N, C = ends). [ ]: non-standard residue; d: D form. The star is where a group is joined. X1 = O=C(O)CN1CCN(CC(=O)O)CCN(Cc2ccc(CC(=O)*)cc2)CC1; Mpa = O=C(O)CCS

Usually tissue uptake stands for the share of the injected amount in each gram of the tissue. Broadly, the logD is the decadic logarithm of the distribution of all forms, ionised or not, between an organic phase and buffer at a given pH. Read a high logD as a more lipophilic compound. For the molecule `CC[C@H](C)[C@@H]1NC(=O)[C@H](Cc2ccc(O)cc2)NC(=O)CCSSC[C@@H](C(=O)N2CCC[C@H]2C(=O)N[C@@H](CCCCNC(=O)Cc2ccc(CN3CCN(CC(=O)O)CCN(CC(=O)O)CC3)cc2)C(=O)NCC(N)=O)NC(=O)[C@H](CC(N)=O)NC(=O)[C@H](CCC(N)=O)NC1=O` [[^18F]AlF-NODA-dLVT] ([Mpa]YIQNCPK(X1)G-NH2; disulfide 1-6), in data set [1] (uptake in brain parenchyma), the tissue uptake at 0.5 h worked out at 0.11 ± 0.03 %ID/g. Further, the tissue uptake at 0.5 h in data set [1] (uptake in cerebellum) worked out at 0.31 ± 0.26 %ID/g. Also, the tissue uptake at 0.5 h in data set [1] (uptake in kidneys) is 1.31 ± 0.7 %ID/g. For the same molecule, in data set [1] (uptake in olfactory bulb), the tissue uptake at 0.5 h is 2.3 ± 1.8 %ID/g. Further, in data set [1] (iv, uptake in brain parenchyma), the tissue uptake at 10 min was found to be 0.05 ± 0.03 %ID/g. Further, in data set [1] (iv, uptake in cerebellum), the tissue uptake at 10 min was 0.05 ± 0.01 %ID/g. The tissue uptake at 10 min in data set [1] (iv, uptake in kidneys) is 4.6 ± 0.4 %ID/g. The tissue uptake at 10 min in data set [1] (iv, uptake in olfactory bulb) amounted to 0.05 ± 0.02 %ID/g. Further, the brain permeable material entry in data set [1] (iv) is on record as “approximately 4.7 × 10^–2 %ID per g”. The same molecule gave a logD in data set [2] of -0.54. Further, in data set [3], the “% specific binding, acumens nuclei (Acb)” value is 43 ± 4%; the “% specific binding, anterior olfactory nucleus (AO)” value came to 38 ± 2%; the “% specific binding, central amygdala nucleus (ac)” value came out at 56 ± 1%; the “% specific binding, hippocampus CA1” value came out at 53 ± 4%. In addition, in data set [3], the “% specific binding, motor cortex (MC)” value is 42 ± 4%; the “% specific binding, olfactory tubercle (Tu)” value is listed as 53 ± 5%; the “% specific binding, subiculum (S)” value was 60 ± 1%; the “% specific binding, visual cortex (V1)” value was 61 ± 4%.
As for `CC[C@H](C)[C@@H]1NC(=O)[C@H](Cc2ccc(O)cc2)NC(=O)[C@@H](N)CSSC[C@@H](C(=O)N2CCC[C@H]2C(=O)N[C@@H](CC(C)C)C(=O)NCC(N)=O)NC(=O)[C@H](CC(N)=O)NC(=O)[C@H](CCC(N)=O)NC1=O` [OTc, oxytocin], in data set [4], the plasma half-life result is given as “approximately 3 min”.
